Measurements taken from paper PMC11020070, “Discovery of Protease-Activated Receptor 4 (PAR4)-Tethered Ligand Antagonists Using Ultralarge Virtual Screening” (ACS Pharmacology & Translational Science, 2024).

Assays:
[1] = Microsomal stability, human liver microsomes; type: in vitro ADME; conditions: for CLint scaled at 1 µM: pH 7.4, human liver microsomes, in vitro, reaction started with NADPH; for human CLhep: predicted hepatic clearance from human liver microsomes
Method: The metabolic stability of each compound was investigated in mouse and human hepatic microsomes using substrate depletion methodology (% parent compound remaining). Prior to use, microsomes were removed from the freezer and allowed to thaw in a 37 °C water bath before being placed on wet ice.
(§1) In separate 96-well plates for each time point, a mixture of 0.1 M potassium phosphate-buffered (pH 7.4), 3 mM MgCl2, and 2.5 mg/mL microsomes were prewarmed at 37 °C for 5 min. Following the preincubation, a 1 μM test compound and 1 mM NADPH (for 3, 7, 15, 25, or 45 min time points) or buffer (for 0 min time point) were added to initiate the reaction. Under standard conditions, reactions were initiated with the addition of NADPH. To delineate the contribution of esterases, some experiments were initiated by the addition of substrate in the presence or absence of NADPH. Plates were incubated at 37 °C under ambient oxygenation. At the respective times, each plate’s reaction was precipitated by the addition of 2 volumes of ice-cold acetonitrile containing an internal standard (carbamazepine, 50 nM). The plates were centrifuged at 4000 rcf (4 °C) for 5 min. The resulting supernatants were transferred and diluted 1:1 (supernatant:water) into new 96-well plates in preparation for LC/MS/MS analysis. Each compound was assayed in triplicate within the same 96-well plate. The in vitro half-life (t1/2, min, eq 1), intrinsic clearance (CLint, mL/min/kg, eq 2), and subsequent predicted hepatic clearance (CLhep, mL/min/kg, eq 3) were determined employing the following equations [drawing 1] 1 [drawing 2] 2 [drawing 3] 3 The estimated percent contribution to metabolism was calculated from the percent substrate lost plots generated from metabolic incubations initiated with the addition of a test compound. Calculations compared the area under the curve (AUC) from conditions in the presence and absence of NADPH and buffer-only (control) conditions (eqs 4 and 5). AUC was calculated by using the trapezoidal method [drawing 4] 4 [drawing 5] 5
The analysis of in vitro samples from microsomal stability or plasma protein binding experiments was determined by employing LCMS/MS with an electrospray ionization-enabled 5500 Sciex instrument (Sciex, Foster City, CA) that was coupled to Agilent HPLC pumps and an autosampler (Agilent Technologies, Santa Clara, CA). Analytes were separated by gradient elution using a Kinetex C18 column (2.1 mm × 50 mm, 5 μm; Phenomenex, Torrance, CA) warmed to 35 °C. Mobile phase A was 0.5% formic acid in water, and mobile phase B was 0.5% formic acid in acetonitrile. […] The total run time was 2.8 min, and the HPLC flow rate was 0.5 mL/min. Mass spectral analyses were performed using multiple reaction monitoring, with transitions and voltages specific for each analyte using a Turbo Ion Spray source (source temperature of 500 °C) in positive ionization mode (5.0 kV spray voltage). Multiple reaction monitoring transitions were the following: 6110B8 (m/z 345.02 → 149.03, DP = 31; EP = 10; CE = 37 and CXP = 14), 6G3R (m/z 421.06 → 225.12, DP = 91; EP = 10; CE = 39 and CXP = 12), 5D22 (m/z 309.068 → 211.16, DP = 131; EP = 10; CE = 29 and CXP = 12), and carbamazepine (m/z 237 → 194, DP = 96; EP = 10; CE = 25 and CXP = 8). Data were analyzed using OS Sciex Analyst 1.5.1 (SCIEX, Framingham, MA), Graphpad Prism 10.1.0 (GraphPad Software, Boston, Massachusetts), and Microsoft Excel version 2310 (Microsoft, Redmond, WA).

[2] = Modified microsomal clearance assay with or without NADPH, human liver microsomes; type: in vitro ADME; conditions: for Estimated % Contribution to Metabolism Human CYPs/FMOs / Estimated % Contribution to Metabolism Human Esterases: HLM, from AUC with/without NADPH vs buffer only; for CLint scaled at 1 µM: human, liver microsomes, pH 7.4, HLM, reaction initiated by test compound
Method: It is of note that the experimental design for the initial round of microsomal clearance assays adds a test compound to microsomes before the reaction is started by the addition of nicotinamide adenine dinucleotide phosphate (NADPH). This design assumes that the major contributing drug-metabolizing enzymes are cytochrome P450s (CYPs). To investigate this further, the experimental design was modified where the reaction was initiated by the addition of a test compound and was carried out in the presence or absence of NADPH. […] By comparison of the measured intrinsic clearance in the presence and absence of NADPH, the contribution of non-CYP450 drug-metabolizing enzymes can be estimated.
Mammalian liver microsomes include CYPs, flavin monooxygenases (FMOs), glucuronosyltransferases ([…]), and esterases as part of their enzyme composition. In the presence of NADPH, which serves as a cofactor for CYP- and FMO-dependent reactions, the observed activity can be attributed to these enzymes. Similarly, UGTs require the cofactor uridine diphosphate glucuronic acid (UDPGA). Therefore, when NADPH and UDPGA are absent, any reduction in the compound can be ascribed only to esterase activity or chemical instability. […] This is based on two factors: (1) the stability of the compounds in HP buffer, which is used in the platelet assays, and (2) the low probability of drug metabolism occurring within the platelets themselves. Together, these minimize the chance that any metabolites with distinct PAR4 potencies could confound the results. By comparing the area under the curve of the compound metabolized from the microsomal incubations in the presence or absence of NADPH to the corresponding area under the curve of the buffer-only incubation, the percent contribution of CYPs and FMOs and esterases were estimated (Table S1). The major contributing enzyme toward the metabolism of 12 is esterases in both the human (96%) and mouse (98%). In contrast, the metabolism of 31 was primarily driven by CYPs and FMOs in both HLM (80%) and MLM (88%).
as §1
Clint (mL/min/kg) Estimated % Contribution to Metabolism
Compound Human Mouse Human Mouse +NADPH -NADPH +NADPH -NADPH CYPs/FMOs Esterases CYPs/FMOs Esterases […]

| CLint scaled at 1 µM [1] [mL/min/kg] | human CLhep [1] [mL/min/kg] | Estimated % Contribution to Metabolism Human CYPs/FMOs [2] [%] | Estimated % Contribution to Metabolism Human Esterases [2] [%] | CLint scaled at 1 µM ([2]; +NADPH) [mL/min/kg] | CLint scaled at 1 µM ([2]; -NADPH) [mL/min/kg] | SMILES |
| --- | --- | --- | --- | --- | --- | --- |
| 407 | 20 | – | – | – | – | Cc1cc(C(=O)Nc2n[nH]c(OC(F)F)n2)nn1-c1ccccc1 [Compound 9] |
| 478 | 20.1 | 4 | 96 | 642 | 352 | Cn1nc(C(=O)Nc2n[nH]c(-c3c(F)cccc3F)n2)cc1C1CC1 [Compound 12] |

Continued, molecule first:

| SMILES | CLint scaled at 1 µM [1] [mL/min/kg] | human CLhep [1] [mL/min/kg] | Estimated % Contribution to Metabolism Human CYPs/FMOs [2] [%] | Estimated % Contribution to Metabolism Human Esterases [2] [%] | CLint scaled at 1 µM ([2]; +NADPH) [mL/min/kg] | CLint scaled at 1 µM ([2]; -NADPH) [mL/min/kg] |
| --- | --- | --- | --- | --- | --- | --- |
| O=C(Nc1nc[nH]n1)c1nn(-c2ccccc2)c2c1CCC2 [Compound 17] | 49.6 | 14.8 | 39 | 61 | 26.8 | 12.4 |
| O=C(Nc1n[nH]c(-c2ccc(F)cc2F)n1)c1nn(-c2ccccc2)c2c1CCCC2 [Compound 31] | 459 | 20.1 | 80 | 20 | 144 | 15.6 |
| COc1cccc(-c2nc(NC(=O)c3nn(-c4ccccc4)c4c3CCCC4)n[nH]2)c1 [Compound 32] | 285 | 19.6 | – | – | – | – |
